ChEMBL document CHEMBL3259753, “Synthesis, structure-activity relationships and biological evaluation of dehydroandrographolide and andrographolide derivatives as novel anti-hepatitis B virus agents” (Bioorg Med Chem Lett, 2014)

Legend:
[1] = Cytotoxicity against human HepG2.2.15 cells by MTT assay; type: cell-based, HepG2 2.2.15
Hepatitis B virus [2] = assay: Antiviral activity against HBV infected in human HepG2.2.15 cells assessed as inhibition of DNA replication; type: functional, organism-based; settings: HepG2 2.2.15
[3] = Selectivity index, ratio of CC50 for human HepG2.2.15 cells to IC50 for HBV infected in human HepG2.2.15 cells assessed as inhibition of DNA replication; type: functional
Hepatitis B virus [4] = assay: Antiviral activity against HBV infected in human HepG2.2.15 cells assessed as inhibition of hepatitis B surface antigen secretion by ELISA; type: functional, organism-based; settings: HepG2 2.2.15
Hepatitis B virus [5] = assay: Antiviral activity against HBV infected in human HepG2.2.15 cells assessed as inhibition of hepatitis B e antigen secretion by ELISA; type: functional, organism-based; settings: HepG2 2.2.15

IC50 (Hepatitis B virus [2]) | IC50 (Hepatitis B virus [4]) | IC50 (Hepatitis B virus [5]) | SMILES | CC50 [1] | Ratio CC50/IC50 [3]
23.2 µM | – | – | C=C1CC[C@@H]2[C@](C)(CO)[C@H](O)CC[C@@]2(C)[C@@H]1C/C=C(/C(=O)O)[C@H](O)CO | 182 µM | 7.8
> 664 µM | > 1920 µM | > 1920 µM | C=C1CC[C@@H]2[C@](C)(COC(=O)c3cccnc3)[C@H](OC(=O)c3cccnc3)CC[C@@]2(C)[C@@H]1/C=C/C1=CCOC1=O | > 1920 µM | –
> 513 µM | > 1970 µM | 1480 µM | C=C1CC[C@@H]2[C@](C)(COC(=O)/C=C/c3cccc(OC)c3)[C@H](O)CC[C@@]2(C)[C@@H]1/C=C/C1=CCOC1=O | > 1970 µM | –
69.5 µM | 565 µM | 2230 µM | C=C1CC[C@@H]2[C@](C)(COC(C)=O)[C@H](O)CC[C@@]2(C)[C@@H]1/C=C/C1=CCOC1=O | 225 µM | 3.2
242 µM | 1410 µM | 1860 µM | C=C1CC[C@@H]2[C@](C)(COC(=O)c3ccco3)[C@H](OC(=O)c3ccco3)CC[C@@]2(C)[C@@H]1/C=C/C1=CCOC1=O | 1110 µM | 4.6
455 µM | 1010 µM | 1390 µM | C=C1CC[C@@H]2[C@](C)(COC(C)=O)[C@H](OC(C)=O)CC[C@@]2(C)[C@@H]1/C=C/C1=CCOC1=O | 757 µM | –
> 429 µM | > 1710 µM | > 1710 µM | C=C1CC[C@@H]2[C@](C)(COC(=O)CCCC(=O)O)[C@H](OC(=O)CCCC(=O)O)CC[C@@]2(C)[C@@H]1/C=C/C1=CCOC1=O | > 1710 µM | –
> 483 µM | > 1930 µM | > 1930 µM | C=C1CC[C@@H]2[C@](C)(COC(=O)COCC(=O)O)[C@H](OC(=O)COCC(=O)O)CC[C@@]2(C)[C@@H]1/C=C/C1=CCOC1=O | > 1930 µM | –
104 µM | – | – | C=C1CC[C@@H]2[C@](C)(COC(=O)c3ccccc3C(=O)O)[C@H](OC(=O)c3ccccc3C(=O)O)CC[C@@]2(C)[C@@H]1/C=C/C1=CCOC1=O | > 1620 µM | >15.6
46.6 µM | 210 µM | 516 µM | C=C1CC[C@@H]2[C@](C)(COC(=O)/C=C/c3ccccc3)[C@H](O)CC[C@@]2(C)[C@@H]1C/C=C1\C=COC1=O | 271 µM | 5.8
22.3 µM | – | – | C=C1CC[C@@H]2[C@](C)(COC(=O)/C=C/c3cc(OC)c(OC)c(OC)c3)[C@H](O)CC[C@@]2(C)[C@@H]1C/C=C1\C=COC1=O | 325 µM | 14.6
21.4 µM | – | > 949 µM | C=C1CC[C@@H]2[C@](C)(COC(=O)c3ccco3)[C@H](O)CC[C@@]2(C)[C@@H]1C/C=C1\C=COC1=O | > 2150 µM | >100.5
> 458 µM | > 1830 µM | > 253 µM | C=C1CC[C@@H]2[C@](C)(COC(=O)/C=C/c3cc(OC)c(OC)c(OC)c3)[C@H](OC(=O)/C=C/c3cc(OC)c(OC)c(OC)c3)CC[C@@]2(C)[C@@H]1C/C=C1\C=COC1=O | > 1830 µM | –
455 µM | 1010 µM | 1390 µM | C=C1CC[C@@H]2[C@](C)(COC(=O)CCCC)[C@H](OC(=O)CCCC)CC[C@@]2(C)[C@@H]1C/C=C1\C=COC1=O | 757 µM | –
47.6 µM | 1160 µM | 243 µM | C=C1CC[C@@H]2[C@](C)(COC(=O)CCC(=O)O)[C@H](OC(=O)CCC(=O)O)CC[C@@]2(C)[C@@H]1C/C=C1\C=COC1=O | 32 µM | –
263 µM | 394 µM | – | C=C1CC[C@H]2[C@@](C)(CCC(=O)[C@@]2(C)C=O)[C@@H]1/C=C/C1=CCOC1=O | 275 µM | 1.1
394 µM | – | 562 µM | C=C1CC[C@@H]2[C@](C)(CO)[C@H](O)CC[C@@]2(C)[C@@H]1/C=C/C1=CC(C(C)(C)O)OC1=O (some centres not stated) | 122 µM | –
